In ChEMBL document CHEMBL4339210, “Synthesis and evaluation of histamine H3 receptor ligand based on lactam scaffold as agents for treating neuropathic pain” (Bioorg Med Chem Lett, 2019):
Activity calls are given as the source filed them. No cut-off for these calls is given here.

What was measured:
Histamine H1 receptor = Histamine H1 receptor (Cavia porcellus, UniProt P31389); test: Displacement of [3H]-mepyramine from histamine H1 receptor in guinea pig cerebellum homogenates incubated for 60 mins by Cheng and Prusoff equation analysis by scintillation counting analysis; type: tissue-based
Histamine H3 receptor = Histamine H3 receptor (Rattus norvegicus, UniProt Q9QYN8); test: Displacement of [3H]-N-alpha-methylhistamine from histamine H3 receptor in rat cerebral cortex homogenates incubated for 60 mins by Cheng and Prusoff equation analysis by scintillation counting analysis
[1] = Acute toxicity in KM mouse assessed as effect on survival at 50 to 1000 mg/kg, po after 24 hrs; type: organism-based; details: in vivo
Rattus norvegicus [2] = test: Anti-nociceptive activity in Sprague-Dawley rat assessed as reduction in total time spent licking injected paw during early phase (0 to 5 mins) at 1 to 10 mg/kg, po dosed 1 hr before formalin injection; type: functional
Rattus norvegicus [3] = test: Anti-nociceptive activity in Sprague-Dawley rat assessed as reduction in total time spent licking injected paw during delayed phase (15 to 45 mins) at 1 to 10 mg/kg, po dosed 1 hr before formalin injection; type: functional
Rattus norvegicus [4] = test: Anti-nociceptive activity in Sprague-Dawley rat assessed as reduction in total time spent licking injected paw during early phase (0 to 5 mins) at 40 mg/kg, po dosed 1 hr before formalin injection; type: functional, organism-based
Rattus norvegicus [5] = test: Anti-nociceptive activity in Sprague-Dawley rat assessed as reduction in total time spent licking injected paw during delayed phase (15 to 45 mins) at 40 mg/kg, po dosed 1 hr before formalin injection; type: functional, organism-based
Rattus norvegicus [6] = test: Anti-nociceptive activity in Sprague-Dawley rat assessed as reduction in total time spent licking injected paw during early phase (0 to 5 mins) at 1 mg/kg, po dosed 1 hr before formalin injection; type: functional, organism-based
Rattus norvegicus [7] = test: Anti-nociceptive activity in Sprague-Dawley rat assessed as reduction in total time spent licking injected paw during delayed phase (15 to 45 mins) at 1 mg/kg, po dosed 1 hr before formalin injection; type: functional, organism-based

Chain of Histamine H1 receptor (P31389 whole entry): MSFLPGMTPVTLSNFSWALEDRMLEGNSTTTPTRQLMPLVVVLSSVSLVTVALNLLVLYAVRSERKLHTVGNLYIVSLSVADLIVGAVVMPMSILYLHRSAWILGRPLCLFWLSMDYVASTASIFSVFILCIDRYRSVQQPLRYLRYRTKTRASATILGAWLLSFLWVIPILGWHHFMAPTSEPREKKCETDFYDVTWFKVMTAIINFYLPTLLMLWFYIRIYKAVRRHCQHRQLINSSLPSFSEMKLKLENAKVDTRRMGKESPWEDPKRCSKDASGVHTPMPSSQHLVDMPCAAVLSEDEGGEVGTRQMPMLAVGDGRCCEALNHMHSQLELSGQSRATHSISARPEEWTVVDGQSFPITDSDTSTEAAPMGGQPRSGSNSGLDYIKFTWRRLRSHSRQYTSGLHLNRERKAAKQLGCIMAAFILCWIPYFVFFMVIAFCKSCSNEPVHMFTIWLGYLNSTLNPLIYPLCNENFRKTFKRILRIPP
Chain of Histamine H3 receptor (Q9QYN8 whole entry): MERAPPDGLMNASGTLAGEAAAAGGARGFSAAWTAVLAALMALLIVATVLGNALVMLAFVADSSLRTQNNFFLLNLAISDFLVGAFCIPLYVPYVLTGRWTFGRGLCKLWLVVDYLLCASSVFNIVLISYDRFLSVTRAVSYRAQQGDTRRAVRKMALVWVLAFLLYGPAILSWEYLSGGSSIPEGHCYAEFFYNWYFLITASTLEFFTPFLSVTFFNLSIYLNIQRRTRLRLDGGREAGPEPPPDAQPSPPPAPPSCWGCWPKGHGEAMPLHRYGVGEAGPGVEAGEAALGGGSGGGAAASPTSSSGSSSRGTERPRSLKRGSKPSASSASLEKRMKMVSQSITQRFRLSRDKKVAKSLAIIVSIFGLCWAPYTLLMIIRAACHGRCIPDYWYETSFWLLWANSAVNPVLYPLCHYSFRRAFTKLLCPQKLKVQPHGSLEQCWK

Structure (SMILES)	Ki (Histamine H1 receptor)	Ki (Histamine H3 receptor)	further results
CN1CCc2ccc(OCCCN3CCOCC3)cc2C1=O	6.5 nM	1030 nM	LD50 at 24 h [1]: > 1000 mg/kg; Activity (Rattus norvegicus [2]): Dose-dependent effect; ED50 (Rattus norvegicus [2]): 1.3 mg/kg; Activity (Rattus norvegicus [3]): Dose-dependent effect; ED50 (Rattus norvegicus [3]): 2.4 mg/kg
CC(C)C[C@H](CN)CC(=O)O			Activity (Rattus norvegicus [4]): Active; Activity (Rattus norvegicus [5]): Active
CN1CCc2ccc(OCCCN3CCC(O)CC3)cc2C1=O	35 nM	908 nM	
NC(=O)c1ccc(OCCCN2C[C@H]3CCC[C@H]3C2)cc1	3.6 nM	426 nM	Activity (Rattus norvegicus [6]): Active; Activity (Rattus norvegicus [7]): Active
CN1CCc2ccc(OCCCCN3CCOCC3)cc2C1=O	856 nM		
CN1CCc2ccc(OCCCN3CCCCC3)cc2C1=O	23 nM	189 nM	
CN1CCN(CCCOc2ccc3c(c2)C(=O)N(C)CC3)CC1	706 nM		
CN1CCc2ccc(OCCCN3CCCC3)cc2C1=O	39 nM	169 nM	
CCN1CCN(CCCOc2ccc3c(c2)C(=O)N(C)CC3)CC1	1100 nM		
CCN(CC)CCCOc1ccc2c(c1)C(=O)N(C)CC2	542 nM		
CN1CCc2ccc(OCCN3CCOCC3)cc2C1=O	1210 nM		
CN1CCc2ccc(OCC(O)CN3CCOCC3)cc2C1=O (stereo not drawn)	> 2000 nM		
CN1CCc2ccc(OCCCN3CCC(O)C3)cc2C1=O (stereo not drawn)	112 nM		
CC1CCN(CCCOc2ccc3c(c2)C(=O)N(C)CC3)CC1	32 nM	279 nM	
CC1CCCN1CCCOc1ccc2c(c1)C(=O)N(C)CC2 (stereo not drawn)	26 nM	68 nM	
CC1CCCCN1CCCOc1ccc2c(c1)C(=O)N(C)CC2 (stereo not drawn)	165 nM		
CN1CCc2ccc(OCCCN3CCC(=O)CC3)cc2C1=O	176 nM		
CCN1CCc2ccc(OCCCN3CCOCC3)cc2C1=O	252 nM		
